In patent US8664267B2 (Academic Pharmaceuticals Incorporated, priority 2007, dated 2014):

Experiments:
dog = details: Torres-Arrault et al. 1984, cited from earlier work
[1] = administered intravenously; cited from earlier work

For `CCCCCCCC/C=C\CCCCCCCC(=O)OCCOCC(OCCO)C1OCC(OCCO)C1OCCO` (stereo not shown) [Tween-80, polysorbate 80], the cardiac depressant effect (dog) is given as “potent cardiac depressant” and the hypotension (dog; dog) is given as “causes hypotension”.

In the case of `CCCCc1oc2ccccc2c1C(=O)c1cc(I)c(OCCN(CC)CC)c(I)c1` [amiodarone, 2-n-butyl-3-(3,5-diiodo-4-β-N-diethylaminoethoxy-benzoyl)benzofuran], the “dose-dependent suppression of arrhythmias compared with the saline control group” value (Coronary Occlusion (Rat)) is listed as “significantly different” and the “onset of action and hemodynamic and electrophysiological effect” value [1] is listed as “rapid onset of action causing profound hemodynamic and electrophysiological effect”.
